What all share (assay): Deferred antagonism assay
Common to all, as to assay type: cell-based

The subject of test [1] is Listeria innocua CLIP. Set-up: key: −, no inhibition; (+), clear zone directly above the colony; +, 1-5 mm zone; ++, 6-10 mm zone; +++, <10 mm zone. Particulars: nisin strain. The method, then:
(§1) Deferred antagonism assays were performed by replicating strains on GM17 or GM17 x-gal agar plates and allowing them to grow overnight before overlaying with either GM17/BHI/TS/MH agar (0.75% w/v agar) seeded with the appropriate indicator strain. Zone size was calculated as the diameter of the zone of clearing minus the diameter of bacterial growth (5 mm) For higher throughput screening of N20PXX, XM21VX, XXK22T and XXX banks deferred antagonism assays were performed by replicating strains using a 96 pin replicator (Boekel) or spotting 5 μl of a fresh overnight culture on GM17 agar plates and allowing them to grow overnight. […] Additional sets of indicators were employed to further assess/reassess the bioactivity of a number of strains. […] For well-diffusion assays molten agar was cooled to 48° C. and seeded with the appropriate indicator strain. The inoculated medium was rapidly transferred into sterile Petri plates in 50 ml volumes, allowed to solidify and dried. Wells (4.6 mm in diameter) were then made in the seeded plates. Purified nisin and mutant nisins were resuspended in 0.005% acetic acid, serially diluted, 50 μl volumes were dispensed into the aforementioned wells and the plates incubated at 37° C. overnight. Bioactivity was expressed as arbitrary units/ml (AU/ml) and calculated as the reciprocal of the highest dilution that gave a definite zone multiplied by the conversion factor (i.e. 20 when 50 μl was used) (Ryan et al., 1996).

The subject of test [2] is Listeria monocytogenes 33083. Set-up: key: −, no inhibition; (+), clear zone directly above the colony; +, 1-5 mm zone; ++, 6-10 mm zone; +++, <10 mm zone. Particulars: nisin strain; L. monocytogenes 33083. The procedure: as §1
In test [3] the test system is Listeria monocytogenes 33225. Particulars: nisin strain; L. monocytogenes 33225. The method, then:
as §1

Test [4] concerns Listeria monocytogenes 33090. The note with it: nisin strain; L. monocytogenes 33090. The method, then: as §1
Test [5] deals with Listeria monocytogenes 33077. The note with it: nisin strain; L. monocytogenes 33077. The procedure: as §1
Test [6] relates to Listeria monocytogenes CD1038. Particulars: nisin strain; L. monocytogenes CD1038. The procedure:
as §1

Test [7] deals with Listeria monocytogenes 33007. Particulars: nisin strain; L. monocytogenes 33007. The procedure:
as §1

For test [8], the system named is Listeria monocytogenes 33423. Particulars: nisin strain; L. monocytogenes 33423. The method, then: as §1
Test [9] deals with Listeria monocytogenes 33116. The note with it: nisin strain; L. monocytogenes 33116. The procedure:
as §1

Test [10] relates to Listeria monocytogenes 33037. Particulars: nisin strain; L. monocytogenes 33037. The method, then:
as §1

The test system of test [11] is Listeria monocytogenes 33013. Particulars: nisin strain; L. monocytogenes 33013. The method, then:
as §1

The subject of test [12] is Listeria innocua FH2117. Particulars: nisin strain. The procedure: as §1
Test [13] deals with Listeria monocytogenes SLCC 6793. The note with it: nisin strain; L. monocytogenes SLCC 6793. The method, then: as §1
Test [14] relates to Listeria monocytogenes 33186. The note with it: nisin strain; L. monocytogenes 33186. The method, then: as §1
Test [15] concerns Listeria monocytogenes 33176. Particulars: nisin strain; L. monocytogenes 33176. The method, then:
as §1

For test [16], the system named is Listeria monocytogenes 33411. The note with it: nisin strain; L. monocytogenes 33411. The procedure: as §1
In test [17] the test system is Listeria monocytogenes LO28. Particulars: nisin strain; L. monocytogenes LO28. The procedure: as §1
In test [18] the test system is Listeria monocytogenes NRRLB 33038. The note with it: nisin strain; L. monocytogenes NRRLB 33038. The procedure:
as §1

In test [19] the test system is Listeria monocytogenes F2365. The note with it: nisin strain; L. monocytogenes F2365. The procedure: as §1
The test system of test [20] is Listeria monocytogenes SLCC 4949. The note with it: nisin strain; L. monocytogenes SLCC 4949. The method, then: as §1
Test [21] deals with Listeria monocytogenes CD83. Particulars: nisin strain; L. monocytogenes CD83. The procedure:
as §1

Test [22] deals with Staph. aureus DPC5245. Particulars: producing strain; diameter of zone minus 5 mm; average of duplicates; St. aureus DPC5245. An outline of the steps:
(§2)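 Producer strains replicated on GM17 agar, grown overnight, then overlaid with soft agar (0.75% w/v) seeded with indicator strain. Zone size = clearing diameter minus 5 mm growth diameter, relative to NZ9800 pCI372nisA control; mean of duplicates.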

For test [23], the system named is Staph. aureus ST528 (MRSA). Particulars: producing strain, diameter of zone minus diameter of bacterial growth (5 mm), average of duplicates. An outline of the steps:
as §2

Test [24] relates to Strep. agalactiae ATCC13813. The note with it: producing strain, diameter of zone minus 5 mm, average of duplicates.

Ends that are not written are not given here.

Take “NisinA M21I (ITSISLCTPGCKTGALMGCNIKTATCHCSIHVSK; not fully specified; also: lantibiotic: lanthionine rings and dehydro residues not placed; UniProt P13068 24-57, looked up, variant M21I) [nisin A derivative, hinge substitution M21I]”: the “Activity score (zone)” value in test [1] is listed as “−”; in test [2], “+ (+, 1-5 mm zone)”; in [3], “+ (+, 1-5 mm zone)”; in test [4] it was “+ (+, 1-5 mm zone)”; in test [5] it was “+ (+, 1-5 mm zone)”; in test [6], “++ (++, 6-10 mm zone)”. Moreover, the “Activity score (zone)” value in test [7] is on record as “++ (++, 6-10 mm zone)”; in test [8] it was “+ (+, 1-5 mm zone)”; in test [9], “++ (++, 6-10 mm zone)”; in test [10], “++ (++, 6-10 mm zone)”; in test [11] it was “+ (+, 1-5 mm zone)”; in [12] it was “+ (+, 1-5 mm zone)”. Moreover, the “Activity score (zone)” value is on record as “+++ (+++, <10 mm zone)” in [13]; “+ (+, 1-5 mm zone)” in test [14]; “+ (+, 1-5 mm zone)” in test [15]; “+ (+, 1-5 mm zone)” in [16]; “++ (++, 6-10 mm zone)” in test [17]; “+ (+, 1-5 mm zone)” in test [18]. The “Activity score (zone)” value in test [19] is recorded as “+ (+, 1-5 mm zone)”; in test [20], “+ (+, 1-5 mm zone)”; in test [21], “+ (+, 1-5 mm zone)”. For the same substance, the “zone size relative to that of the NZ9800 pCI372nisA control” value amounted to 115% in test [22], 107% in [23] and 92% in test [24].
For the substance “NisinA M21S (ITSISLCTPGCKTGALMGCNSKTATCHCSIHVSK; not fully specified; also: lantibiotic nisin: dehydrated residues and thioether rings not placed; UniProt P13068 24-57, looked up, variant M21S) [nisin A derivative, hinge substitution M21S]”, the “Activity score (zone)” value was “+ (+, 1-5 mm zone)” in [1]; “+ (+, 1-5 mm zone)” in test [2]; “++ (++, 6-10 mm zone)” in test [3]; “+ (+, 1-5 mm zone)” in test [4]; “++ (++, 6-10 mm zone)” in test [5]; “++ (++, 6-10 mm zone)” in test [6]. In addition, the “Activity score (zone)” value was “++ (++, 6-10 mm zone)” in test [7]; “+ (+, 1-5 mm zone)” in test [8]; “++ (++, 6-10 mm zone)” in [9]; “++ (++, 6-10 mm zone)” in test [10]; “+ (+, 1-5 mm zone)” in test [11]; “+ (+, 1-5 mm zone)” in test [12]. Besides, the “Activity score (zone)” value in [13] is on record as “+++ (+++, <10 mm zone)”; in test [14] it was “+ (+, 1-5 mm zone)”; in test [15], “++ (++, 6-10 mm zone)”; in test [16] it was “++ (++, 6-10 mm zone)”; in test [17], “+++ (+++, <10 mm zone)”; in test [18], “++ (++, 6-10 mm zone)”. For the same substance, the “Activity score (zone)” value in test [19] was “++ (++, 6-10 mm zone)”; in test [20], “+ (+, 1-5 mm zone)”; in test [21], “+ (+, 1-5 mm zone)”. Moreover, the “zone size relative to that of the NZ9800 pCI372nisA control” value in [22] came out at 110%; in test [23], 105%; in [24] it was 110%.

The values above are taken from patent publication US8987193B2, “Nisin derivatives and the use thereof” (University College Cork—National University of Ireland, Cork, priority 2008, dated 2015).
